Experimental data from patent US9259402B2, “Compounds with (1 E, 6E)-1,7-bis-(3,4-dimethoxyphenyI)-4,4-disubstituted-hepta-1,6-diene-3,5-dione structural scaffold, their biological activity, and uses thereof” (AndroScience Corporation, priority 2007, dated 2016).
Changes are numbered by the printed parent chain. pIC50: −log10 of the molar value. Read-outs that look alike come from different tables or passages of the source. Each block holds one compound with its values, some of them ahead of it.

Assays:
AR protein = target: T1, AR protein (Homo sapiens, UniProt P10275, T878A); assay: Cycloheximide chasing assay of AR degradation in LNCaP cells; assay type: cell-based; settings: in the presence of cycloheximide (CHX)
T1 sequence (P10275 1-920 T878A): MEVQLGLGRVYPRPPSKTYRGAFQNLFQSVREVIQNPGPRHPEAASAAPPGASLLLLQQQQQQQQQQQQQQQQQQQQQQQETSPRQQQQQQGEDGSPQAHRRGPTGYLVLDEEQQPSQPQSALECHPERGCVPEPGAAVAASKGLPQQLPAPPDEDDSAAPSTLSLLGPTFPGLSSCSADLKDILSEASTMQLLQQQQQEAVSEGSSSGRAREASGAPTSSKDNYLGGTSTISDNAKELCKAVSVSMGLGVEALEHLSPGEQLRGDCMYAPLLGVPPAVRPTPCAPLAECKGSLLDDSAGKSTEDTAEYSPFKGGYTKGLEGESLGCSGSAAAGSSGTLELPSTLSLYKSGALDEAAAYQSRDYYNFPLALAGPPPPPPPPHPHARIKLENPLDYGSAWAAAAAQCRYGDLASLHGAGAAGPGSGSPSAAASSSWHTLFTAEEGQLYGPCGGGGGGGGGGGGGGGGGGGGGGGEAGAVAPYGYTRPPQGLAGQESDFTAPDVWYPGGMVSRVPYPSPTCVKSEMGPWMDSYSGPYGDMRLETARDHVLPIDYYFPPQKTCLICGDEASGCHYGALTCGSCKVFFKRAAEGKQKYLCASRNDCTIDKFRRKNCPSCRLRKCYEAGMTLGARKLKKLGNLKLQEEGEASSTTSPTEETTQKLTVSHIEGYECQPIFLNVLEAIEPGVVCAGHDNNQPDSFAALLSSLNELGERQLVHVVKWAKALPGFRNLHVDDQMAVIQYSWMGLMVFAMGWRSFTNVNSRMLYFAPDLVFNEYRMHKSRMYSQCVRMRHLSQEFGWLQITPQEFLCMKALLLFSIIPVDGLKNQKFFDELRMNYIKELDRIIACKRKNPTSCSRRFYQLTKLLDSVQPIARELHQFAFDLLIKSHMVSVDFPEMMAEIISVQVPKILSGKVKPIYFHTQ
Experimental: AR protein “degradation” in prostate cancer cells was measured by using cycloheximide (a protein synthesis inhibitor) chasing assay method. Briefly, LNCaP cells were incubated with testing ASC compound at the designated concentrations for 24 hours. Subsequently, cycloheximide was added to the cells at a concentration of 15 μg/ml to block new protein synthesis. After incubation, cells were harvested at designated time periods and the resultant change in AR protein levels were analysed using Western Blot analysis as described above.

[1] = target: T2, Androgen Receptor (AR) protein expression (Homo sapiens, UniProt P10275, H875Y, form not given); assay: Western Blot analysis of AR protein expression in CWR22Rv1 cells; settings: for IC50: read-out: Reduction of AR expression IC50 (μM) 24 h, Western blotting, 24 h post-incubation
T2 sequence (P10275 1-920 H875Y): T1 sequence (P10275 1-920 T878A) with H875Y, A878T

[2] = target: T3, Androgen Receptor (AR) protein expression (Homo sapiens, UniProt P10275, T878A); assay: Western Blot analysis of AR protein expression in LNCaP cells; assay type: cell-based
T3 sequence (P10275 1-920 T878A): T1 sequence (P10275 1-920 T878A)

[3] = test system: CWR22Rv1 cells (human prostate cancer); assay: MTT cell growth assay, CWR22Rv1 cells; assay type: cell-based; settings: 5 days, read-out: Inhibition of Tumor cells growth IC50
Experimental: The MTT cell proliferation assay was applied in the present invention to detect the capability of compounds to suppress or inhibit prostate cancer cells growth. […] Briefly, 1×10^3 LNCaP or CWR22Rv1 cells suspended in complete medium were plated into each well of a 96-well Microtest III tissue culture plate (Falcon, N.J.). Two days later, the medium was replaced with RPMI-1640 medium containing 10% charcoal/dextran-deprived FBS (hormone-deprived fetal bovine serum). Testing compounds were added to the medium at indicated concentrations with or without 1 nM DHT and cells were cultured for 5 days in an incubator (at 37° C.). MTT substrate solution (5 mg/ml in PBS) in 1/10 of volume was added to the cells in each well at 2 hours before harvesting. After 2 hour incubation, the plates were centrifuged (10 min at 1,000 rpm) and the supernatant from each well was carefully removed. A 100 μl of lysis buffer (50% dimethyl formamide, 5% sodium dodecyl sulphate, 0.35 M acetic acid, and 50 mM HCl) was added to each well to lyse the cells and dissolved tetrazolium in each well. The relative quantity of enzyme activity from each well was measured based on absorbance read at a wavelength of 450 nm using a Bio-RAD BenchMark microplate reader. Data derived from the MTT assay were also verified by the actual cell count and cell morphology on a separate plate set up in parallel.
For inhibition of tumor cell growth, in vitro, cells were growth in the presence of testing compounds for 5 days, and the cell growth was assayed by standard MTT assay.

[4] = Stability in acidic condition (0.1 N HCl, 37° C.); assay type: physicochemical
Description: (§1) Also, at 24 hr where stability of JM49 was only 4%, while its derivative Compound 6 had improved to 79%. Similar improvements in stability (from 6-24 hr) were also observed in the conditions of rat plasma (Table 4) and human plasma (Table 5).

[5] = Stability in human plasma; assay type: in vitro ADME; settings: 37° C.
Description: as §1

Stability in rat plasma = assay type: in vitro ADME; settings: 37° C.
Description: as §1

Structure (SMILES): COc1ccc(C=CC(=O)C=C(O)C=Cc2ccc(OC)c(OC)c2)cc1OC [ASC-J9 ®, 1,7-Bis-(3,4-dimethoxy-phenyl)-5-hydroxy-hepta-1,4,6-trien-3-one, reference compound]
AR protein degradation (Western Blot, in words) (AR protein): enhances AR protein degradation

Structure (SMILES): COc1ccc(/C=C/C(=O)C(C(=O)/C=C/c2ccc(OC)c(OC)c2)=C(O)/C=C/c2ccc(OC)c(OC)c2)cc1OC [ASC-JM4]
Reduction of AR expression (Western Blot, in words) [1]: capable of reducing endogenous AR expression | Reduction of AR expression (Western Blot, in words) [2]: capable of reducing endogenous AR expression

Structure (SMILES): COc1ccc(/C=C/C(=O)C2CC(c3ccc(OC)c(OC)c3)(C(C(=O)/C=C/c3ccc(OC)c(OC)c3)C(=O)/C=C/c3ccc(OC)c(OC)c3)CC2=O)cc1OC (centres unmarked) [ASC-JM5]
AR protein degradation (Western Blot, in words) (AR protein): enhances AR protein degradation

Structure (SMILES): COc1ccc(/C=C/C(=O)C(C)(CC2CC2)C(=O)/C=C/c2ccc(OC)c(OC)c2)cc1OC [Compound 1]
pIC50 ([3]; Homo sapiens, 120 h): 5.62

Structure (SMILES): COc1ccc(/C=C/C(=O)C(C)(CC2CCC2)C(=O)/C=C/c2ccc(OC)c(OC)c2)cc1OC [Compound 2]
melting point: 161 to 162 °C

Structure (SMILES): COc1ccc(C=CC(=O)C(CC2CCCC2)=C(O)C=Cc2ccc(OC)c(OC)c2)cc1OC [Compound 3]
IC50 [1]: 2.8 µM

Structure (SMILES): CCCCC(F)(C(=O)C=Cc1ccc(OC)c(OC)c1)C(=O)C=Cc1ccc(OC)c(OC)c1 (centres unmarked) [Compound 19]
IC50 [1]: > 5 µM | pIC50 [3]: 5.33

Other lines, results leading:

melting point: 128 to 129 °C | pIC50 ([3]; Homo sapiens, 120 h): 5.34
Structure (SMILES): COc1ccc(/C=C/C(=O)C(C)(CC2CCCCC2)C(=O)/C=C/c2ccc(OC)c(OC)c2)cc1OC [Compound 5]

Concentration change (%) in acidic condition ([4]; 0 h): 100% | Concentration change (%) in acidic condition ([4]; 2 h): 100% | Concentration change (%) in acidic condition ([4]; 4 h): 99% | Concentration change (%) in acidic condition ([4]; 24 h): 79% | Concentration change (%) in acidic condition ([4]; 48 h): 56% | Concentration change (%) in human plasma ([5]; 0 h): 100% | Concentration change (%) in human plasma ([5]; 6 h): 91% | Concentration change (%) in human plasma ([5]; 24 h): 54% | Concentration change (%) in human plasma ([5]; 48 h): 27%
Structure (SMILES): CCN(CC)C(=O)CC(C)(C(=O)/C=C/c1ccc(OC)c(OC)c1)C(=O)/C=C/c1ccc(OC)c(OC)c1 [Compound 6]

Concentration change (%) in acidic condition ([4]; 0 h): 100% | Concentration change (%) in acidic condition ([4]; 1 h): 99% | Concentration change (%) in acidic condition ([4]; 2 h): 99% | Concentration change (%) in acidic condition ([4]; 4 h): 98% | Concentration change (%) in acidic condition ([4]; 24 h): 81% | Concentration change (%) in acidic condition ([4]; 48 h): 58% | Concentration change (%) in human plasma ([5]; 6 h): 95% | Concentration change (%) in human plasma ([5]; 24 h): 71% | Concentration change (%) in human plasma ([5]; 48 h): 49%
Structure (SMILES): COc1ccc(/C=C/C(=O)C(C)(CC(=O)N(C)C)C(=O)/C=C/c2ccc(OC)c(OC)c2)cc1OC [Compound 7]

melting point: 104 to 105 °C
Structure (SMILES): COc1ccc(/C=C/C(=O)C(F)(CC2CC2)C(=O)/C=C/c2ccc(OC)c(OC)c2)cc1OC [Compound 13]

melting point: 98 to 100 °C
Structure (SMILES): COc1ccc(/C=C/C(=O)C(F)(CC2CCC2)C(=O)/C=C/c2ccc(OC)c(OC)c2)cc1OC [Compound 14]

pIC50 ([3]; Homo sapiens, 120 h): < 5.12
Structure (SMILES): COc1ccc(/C=C/C(=O)C(F)(CC(=O)N(C)C)C(=O)/C=C/c2ccc(OC)c(OC)c2)cc1OC [Compound 18]

Concentration change (%) in rat plasma (Stability in rat plasma; 0 h): 100% | Concentration change (%) in rat plasma (Stability in rat plasma; 1 h): 93% | Concentration change (%) in rat plasma (Stability in rat plasma; 2 h): 88% | Concentration change (%) in rat plasma (Stability in rat plasma; 6 h): 73% | Concentration change (%) in rat plasma (Stability in rat plasma; 24 h): 27% | Concentration change (%) in rat plasma (Stability in rat plasma; 48 h): 7% | Concentration change (%) in acidic condition ([4]; 0 h): 100% | Concentration change (%) in acidic condition ([4]; 1 h): 14% | Concentration change (%) in acidic condition ([4]; 2 h): 8% | Concentration change (%) in acidic condition ([4]; 6 h): 0% | Concentration change (%) in acidic condition ([4]; 24 h): 0% | Concentration change (%) in human plasma ([5]; 0 h): 100% | Concentration change (%) in human plasma ([5]; 1 h): 88% | Concentration change (%) in human plasma ([5]; 2 h): 76% | Concentration change (%) in human plasma ([5]; 6 h): 45% | Concentration change (%) in human plasma ([5]; 24 h): 11% | Concentration change (%) in human plasma ([5]; 48 h): 1%
Structure (SMILES): COc1ccc(/C=C/C(=O)C(CC(=O)N(C)C)=C(O)/C=C/c2ccc(OC)c(OC)c2)cc1OC [JM77]

melting point: 55 to 56 °C
Structure (SMILES): CCOC(=O)CCC(=O)C=Cc1ccc(O)c(OC)c1 [Monomer 6, 6-(4-Hydroxy-3-methoxy-phenyl)-4-oxo-hex-5-enoic acid ethyl ester]
